{"source": "paper PMC5750218", "about": "“Protein-inspired antibiotics active against vancomycin- and daptomycin-resistant bacteria” (Nature Communications, 2018)", "experiment_in_all_cases": "microbe, parasite or virus in culture", "key": {"[1]": {"system": "Methicillin-resistant S. aureus ATCC 43300", "conditions": "ATCC 43300, 24 h", "procedure": "(§1) Antimicrobial activity of compounds was tested against a number of bacterial strains by broth microdilution (BMD) assay with MIC determination, including S. aureus (MSSA ATCC® 29213™, MRSA ATCC® 43300™, VISA NARSA NRS1, VISA NARSA NRS4), Streptococcus pneumoniae (MDR ATCC® 700677™) and Enterococcus faecium (MDR VanA ATCC® 51559™). ATCC strains were sourced from the American Type Culture Collection and NRS strains from NARSA (Network on Antimicrobial Resistance in S. aureus) via BEI Resources (www.beiresources.org). All compounds were prepared to 160 µg mL^−1 solution in water from a stock solution of 1 mM concentration.\n[…] […] Standards ranged from 64 to 0.03 µg mL^−1 and compounds from 8 to 0.003 µg mL^−1 with final assay volumes of 100 µL per well. Gram-positive bacteria were cultured in Mueller Hinton broth (MHB) (Bactolaboratories, Cat. no. 211443) at 37 °C overnight. A sample of each culture was then diluted 40-fold in fresh MHB and incubated at 37 °C for 2–3 h. […] All the plates were covered and incubated at 37 °C for 24 h. MICs were the lowest concentration showing no visible growth."}, "[2]": {"system": "Vancomycin-resistant (VanA) Enterococcus faecium ATCC 51559", "conditions": "ATCC 51559", "procedure": "as §1\n(§2) The compounds, along with standard antibiotics were serially diluted twofold across the wells of 96-well non-binding surface (NBS) polystyrene plates (Corning 3641). […] Standards ranged from 64 to 0.03 µg mL^−1 and compounds from 8 to 0.003 µg mL^−1 with final assay volumes of 100 µL per well. Gram-positive bacteria were cultured in Mueller Hinton broth (MHB) (Bactolaboratories, Cat. no. 211443) at 37 °C overnight. A sample of each culture was then diluted 40-fold in fresh MHB and incubated at 37 °C for 2–3 h. […] All the plates were covered and incubated at 37 °C for 24 h. MICs were the lowest concentration showing no visible growth."}, "[3]": {"system": "Multi-drug-resistant S. pneumoniae ATCC 700677", "conditions": "ATCC 700677", "procedure": "as §1, §2"}, "[4]": {"system": "Vancomycin-intermediate S. aureus NRS1", "conditions": "Vancomycin-intermediate NRS1", "procedure": "as §1, §2"}}, "note": "Positions of bridges follow the written chain, without caps; N, C: chain ends. Residues, ends and D or L forms follow the SMILES beside them. Chains are numbered I, II in the order given. *: point of attachment. Myristoyl = CCCCCCCCCCCCCC(=O)*", "data": [{"smiles": "CCCCCCCCCCCCCC(=O)NCC(=O)N[C@@H](CO)C(=O)N[C@@H](CO)C(=O)N[C@@H](CCCCN)C(=O)N[C@@H](CO)C(=O)N1CCC[C@H]1C(=O)N[C@@H](CO)C(=O)N[C@@H](CCCCN)C(=O)N[C@@H](CCCCN)C(=O)N[C@@H](CCCCN)C(=O)N[C@@H](CCCCN)C(=O)N[C@@H](CCCCN)C(=O)N[C@@H](CCCCN)C(=O)N1CCC[C@H]1C(=O)NCC(=O)N[C@@H](CC(=O)O)C(=O)N[C@@H](CS)C(N)=O", "note": "[Compound 8a] (Myristoyl-GSSKSPSKKKKKKPGDC-NH2)", "values": [{"measurement": "MIC MRSA", "setting": "[1]", "value": ">8", "unit": "µg/mL"}, {"measurement": "MIC VRE", "setting": "[2]", "value": ">8", "unit": "µg/mL"}]}, {"smiles": "CCCCCCCCCCCCCC(=O)NCC(=O)N[C@@H](CO)C(=O)N[C@@H](CO)C(=O)N[C@@H](CCCCN)C(=O)N[C@@H](CO)C(=O)N1CCC[C@H]1C(=O)N[C@@H](CO)C(=O)N[C@@H](CCCCN)C(=O)N[C@@H](CCCCN)C(=O)N[C@@H](CCCCN)C(=O)N1CCC[C@H]1C(=O)N[C@@H](CS)C(N)=O", "note": "[Compound 12a] (Myristoyl-GSSKSPSKKKPC-NH2)", "values": [{"measurement": "MIC MRSA", "setting": "[1]", "value": ">8", "unit": "µg/mL"}, {"measurement": "MIC VRE", "setting": "[2]", "value": ">8", "unit": "µg/mL"}]}, {"smiles": "CCCCCCCCCCCCCC(=O)NCC(=O)N[C@@H](CO)C(=O)N[C@@H](CCCCN)C(=O)N[C@@H](CCCCN)C(=O)N[C@@H](CCCCN)C(=O)N[C@@H](CS)C(N)=O", "note": "[Compound 13a, Myristoyl-GSKKKC-NH 2] (Myristoyl-GSKKKC-NH2)", "values": [{"measurement": "MIC MRSA", "setting": "[1]", "value": ">8", "unit": "µg/mL"}, {"measurement": "MIC VRE", "setting": "[2]", "value": ">8", "unit": "µg/mL"}]}, {"smiles": "CCCCCCCCCCCCCC(=O)NCC(=O)N[C@@H](CO)C(=O)N[C@@H](CCCCN)C(=O)N[C@@H](CCCCN)C(=O)N[C@@H](CCCCN)C(=O)N[C@@H](CS)C(=O)O", "note": "[Compound 14a, Myristoyl-GSKKKC-OH] (Myristoyl-GSKKKC-OH)", "values": [{"measurement": "MIC MRSA", "setting": "[1]", "value": ">8", "unit": "µg/mL"}, {"measurement": "MIC VRE", "setting": "[2]", "value": ">8", "unit": "µg/mL"}]}, {"smiles": "CCCCCCCCCCCCCC(=O)N[C@@H](CCCCN)C(=O)N[C@@H](CCCCN)C(=O)N[C@@H](CCCCN)C(=O)N[C@@H](CSSC[C@H](NC(=O)[C@H](CCCCN)NC(=O)[C@H](CCCCN)NC(=O)[C@H](CCCCN)NC(=O)CCCCCCCCCCCCC)C(=O)O)C(=O)O", "note": "[Compound 15a, Myristoyl-KKKC-OH – disulphide dimer] (I: Myristoyl-KKKC-OH / II: Myristoyl-KKKC-OH; disulfide I:4-II:4)", "values": [{"measurement": "MIC MRSA", "setting": "[1]", "value": ">8", "unit": "µg/mL"}, {"measurement": "MIC VRE", "setting": "[2]", "value": ">8", "unit": "µg/mL"}]}, {"smiles": "CNC(=O)[C@H](CCCCNC(=O)[C@H]1NC(=O)[C@H]2NC(=O)[C@H](NC(=O)[C@@H]3NC(=O)[C@H](CC(N)=O)NC(=O)[C@H](NC(=O)[C@@H](CC(C)C)NC)[C@H](O)c4ccc(c(Cl)c4)Oc4cc3cc(c4O[C@@H]3O[C@H](CO)[C@@H](O)[C@H](O)[C@H]3O[C@H]3C[C@](C)(N)[C@H](O)[C@H](C)O3)Oc3ccc(cc3Cl)[C@H]2O)c2ccc(O)c(c2)-c2c(O)cc(O)cc21)NC(=O)[C@H](CCCCN)NC(=O)[C@@H](CCCCN)NC(=O)[C@H](CCCCNC(=O)c1ccc(Oc2ccccc2)cc1)NC(=O)c1ccc(Oc2ccccc2)cc1", "note": "[Compound 26]", "values": [{"measurement": "MIC MRSA", "setting": "[1]", "value": "<0.003", "unit": "µg/mL"}, {"measurement": "MIC MDR S.P.", "setting": "[3]", "value": "<3", "unit": "ng/mL"}, {"measurement": "MIC VISA", "setting": "[4]", "value": 0.19, "unit": "µg/mL"}, {"measurement": "MIC VRE", "setting": "[2]", "value": 1.5, "unit": "µg/mL"}]}, {"smiles": "CNC(=O)[C@H](CCCCNC(=O)[C@H]1NC(=O)[C@H]2NC(=O)[C@H](NC(=O)[C@@H]3NC(=O)[C@H](CC(N)=O)NC(=O)[C@H](NC(=O)[C@@H](CC(C)C)NC)[C@H](O)c4ccc(c(Cl)c4)Oc4cc3cc(c4O[C@@H]3O[C@H](CO)[C@@H](O)[C@H](O)[C@H]3O[C@H]3C[C@](C)(N)[C@H](O)[C@H](C)O3)Oc3ccc(cc3Cl)[C@H]2O)c2ccc(O)c(c2)-c2c(O)cc(O)cc21)NC(=O)[C@H](CN)NC(=O)[C@H](CN)NC(=O)[C@H](CCCCNC(=O)c1ccc(Oc2ccccc2)cc1)NC(=O)c1ccc(Oc2ccccc2)cc1", "note": "[Compound 29, POB2K-Dap-Dap-K(Vancomycin)-NHMe]", "values": [{"measurement": "MIC MRSA", "setting": "[1]", "value": 0.0045, "unit": "µg/mL"}, {"measurement": "MIC MDR S.P.", "setting": "[3]", "value": 8.5, "unit": "ng/mL"}, {"measurement": "MIC VISA", "setting": "[4]", "value": 0.0925, "unit": "µg/mL"}, {"measurement": "MIC VRE", "setting": "[2]", "value": 0.75, "unit": "µg/mL"}]}]}
